{
  "source": "paper PMC8004712",
  "about": "“MRAP2 Interaction with Melanocortin-4 Receptor in SnakeHead (Channa argus)” (Biomolecules, 2021)",
  "key": {"caMC4R [1]": {"target": "caMC4R", "assay": "Ligand binding assay, caMC4R (displacement of ^125I-NDP-MSH)", "design": "species or system Channa argus (Northern snakehead)", "settings": "HEK293T cells, 48 h after transfection, competition with ^125I-NDP-MSH, 1-h incubation, DMEM/BSA, gamma counter, mean ± SEM of at least three independent experiments"}, "[2]": {"tested_on": "brain gnih, sgnrh and cgnrh; ovarian genes", "settings": "black rockfish, ref not given, cited from earlier work", "text": "In addition to energy homeostasis, MC4R also regulates reproduction and sexual function. Compared with mammals, the evidence of MC4R in regulating teleost reproduction is relatively scarce. In swordtail fish, nonfunctional Y-linked mc4r copies in larger males act as dominant-negative mutants and delay puberty onset. In spotted scat, MC4R stimulates gnrh expression in the hypothalamus, thereby modulating pituitary FSH and LH synthesis."}, "caMC4R [3]": {"tested_on": "caMC4R", "assay": "cAMP assay, caMC4R", "assay_type": "cell-based, Channa argus (Northern snakehead)", "settings": "HEK293T cells"}, "MC4R": {"tested_on": "MC4R", "settings": "ref [36],[59],[65]; cited from earlier work", "text": "(decreased cell surface expression), or zebrafish and topmouth culter (increased cell surface expression). Therefore, MRAP2 has a differential effect on MC4R membrane expression in different species. […] In topmouth culter, two isoforms of MRAP2 are also sho ..."}, "goldfish": {"tested_on": "goldfish", "settings": "intracerebroventricular, ref [25]; cited from earlier work", "text": "MC4R has been investigated in several non-mammalian vertebrates including ectotherm fish, such as goldfish, rainbow trout, spotted scat, grass carp, ricefield eel, orange-spotted grouper, and topmouth culter. Similar to mammalian MC4Rs, teleost MC4R is also involved in regulating food intake and maintaining energy balance. […] Meanwhile, intracerebroventricular administration of M ..."}},
  "data": [
    {"compound": "CSCC[C@H](NC(=O)[C@H](CCCNC(=N)N)NC(=O)[C@H](Cc1ccc(O)cc1)NC(=O)[C@@H]1CCCN1C(=O)CNC(=O)[C@H](CCC(=O)O)NC(=O)[C@H](CC(=O)O)NC(=O)[C@H](CCCCN)NC(=O)[C@H](CCCCN)NC(=O)[C@H](CCC(=O)O)NC(=O)[C@H](C)N)C(=O)N[C@@H](CCC(=O)O)C(=O)N[C@@H](Cc1c[nH]cn1)C(=O)N[C@@H](Cc1ccccc1)C(=O)N[C@@H](CCCNC(=N)N)C(=O)N[C@@H](Cc1c[nH]c2ccccc12)C(=O)NCC(=O)N[C@@H](CO)C(=O)N1CCC[C@H]1C(=O)N1CCC[C@H]1C(=O)N[C@@H](CCCCN)C(=O)N[C@@H](CC(=O)O)C(=O)O", "note": "[β-MSH]", "values": [
      {"measurement": "IC50", "setting": "caMC4R [1]", "value": "329 ± 120", "unit": "nM"},
      {"measurement": "expression of brain gnih, sgnrh and cgnrh", "setting": "[2]; in vitro", "value": "increase brain gnih and decrease sgnrh and cgnrh expression in vitro"},
      {"measurement": "expression of ovarian genes", "setting": "[2]", "value": "affect expression of some ovarian genes"},
      {"measurement": "maximal response at caMC4R in comparison with hMC4R", "setting": "caMC4R [3]; caMC4R vs hMC4R, cAMP", "value": "higher maximal responses than hMC4R"},
      {"measurement": "Rmax", "setting": "caMC4R [3]; caMC4R, % of hMC4R, cAMP by RIA, 1 h at 37 °C, maximal response, mean ± SEM of at least three independent experiments", "value": "163.9 ± 89.36", "unit": "%"},
      {"measurement": "EC50", "setting": "caMC4R [3]; caMC4R, cAMP by RIA, 0.5 mM isobutylmethylxanthine, 1 h at 37 °C, 10^−12 to 10^−6 M NDP-MSH and ACTH (1–24), 10^−11 to 10^−5 M α-MSH and β-MSH, mean ± SEM of at least three independent experiments", "value": "2.49 ± 0.81", "unit": "nM"}
    ]},
    {"compound": "ACTH", "values": [
      {"measurement": "ligand sensitivity of MC4R to ACTH in the presence of MRAP2", "setting": "MC4R", "value": "increasing ligand sensitivity to ACTH"}
    ]},
    {"compound": "HS024", "values": [
      {"measurement": "food intake", "setting": "goldfish", "value": "stimulates food intake"}
    ]},
    {"compound": "melanotan II", "values": [
      {"measurement": "food intake", "setting": "goldfish", "value": "inhibits food intake"}
    ]}
  ]
}
